Laboratory results taken from ChEMBL document CHEMBL5634076, “Optimization of pyridylpiperazine-based inhibitors of the Escherichia coli AcrAB-TolC efflux pump” (Eur J Med Chem, 2023).
≈ marks a conversion by molar mass, not a printed value.

Tests used:
Escherichia coli [1] = assay: Antibacterial activity against Escherichia coli BW25113 assessed as reduction in bacterial growth incubated for 20 hrs by resazurin microtitre assay; type: functional
Escherichia coli [2] = assay: Antibacterial activity against Escherichia coli BW25113 harboring acrB deletion mutant assessed as reduction in bacterial growth incubated for 20 hrs by resazurin microtitre assay; type: functional
[3] = Stability in CD-1 mouse liver microsomes assessed as intrinsic clearance at 1 uM measured up to 40 mins by LC-MS/MS analysis; type: ADME, Microsome; conditions: read-out: CLH
[4] = molecular target: T1, Multidrug efflux pump subunit AcrB (Escherichia coli (strain K12)) (UniProt P31224); assay: Inhibition of AcrB in Escherichia coli BW25113 assessed as potentiation of pyridomycin-induced antibacterial activity incubated for 5 hrs by resazurin reduction assay
T1 sequence (whole entry): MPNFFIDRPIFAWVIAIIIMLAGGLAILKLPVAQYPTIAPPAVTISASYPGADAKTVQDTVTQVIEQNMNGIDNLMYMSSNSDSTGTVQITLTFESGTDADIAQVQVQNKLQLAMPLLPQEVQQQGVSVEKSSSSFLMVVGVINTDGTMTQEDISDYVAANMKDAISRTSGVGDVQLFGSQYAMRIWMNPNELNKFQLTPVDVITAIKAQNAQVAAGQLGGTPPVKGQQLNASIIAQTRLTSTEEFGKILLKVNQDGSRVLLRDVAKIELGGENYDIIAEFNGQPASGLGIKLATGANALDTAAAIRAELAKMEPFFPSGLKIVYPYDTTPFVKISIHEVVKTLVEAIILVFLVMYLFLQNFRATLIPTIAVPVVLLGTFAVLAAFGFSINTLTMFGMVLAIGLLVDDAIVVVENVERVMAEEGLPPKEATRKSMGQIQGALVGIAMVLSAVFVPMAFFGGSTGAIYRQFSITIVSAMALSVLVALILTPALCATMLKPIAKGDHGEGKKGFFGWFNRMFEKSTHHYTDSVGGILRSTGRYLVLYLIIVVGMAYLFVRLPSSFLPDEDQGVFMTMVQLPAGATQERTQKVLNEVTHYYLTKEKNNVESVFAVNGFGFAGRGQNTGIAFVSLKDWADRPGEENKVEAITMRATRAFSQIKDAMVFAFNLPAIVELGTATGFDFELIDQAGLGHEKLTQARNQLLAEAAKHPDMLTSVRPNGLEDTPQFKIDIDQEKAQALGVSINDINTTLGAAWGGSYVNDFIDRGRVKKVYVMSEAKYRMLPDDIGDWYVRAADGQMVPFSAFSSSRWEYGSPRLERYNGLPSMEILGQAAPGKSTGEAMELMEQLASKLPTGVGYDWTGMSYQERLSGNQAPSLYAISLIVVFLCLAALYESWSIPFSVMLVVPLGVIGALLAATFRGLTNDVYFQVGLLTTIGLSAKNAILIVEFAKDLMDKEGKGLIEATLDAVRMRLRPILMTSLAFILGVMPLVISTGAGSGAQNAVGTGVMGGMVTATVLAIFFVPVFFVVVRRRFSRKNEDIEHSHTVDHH

[5] = Stability in mouse plasma assessed as half life at 10 uM measured up to 360 mins by LC-MS/MS analysis; type: ADME, cell-free
[6] = Solubility of compound in PBS at pH 7.4 incubated for 24 hrs by LC-MS/MS analysis; type: physicochemical
[7] = Stability in CD-1 mouse liver microsomes assessed as half life at 1 uM measured up to 40 mins by LC-MS/MS analysis; type: ADME, Microsome
Escherichia coli [8] = assay: Antibacterial activity against Escherichia coli BW25113 assessed as reduction in bacterial growth incubated for 5 hrs by resazurin reduction assay; type: functional
Escherichia coli [9] = assay: Potentiation of piperacillin induced antibacterial activity in Escherichia coli BW25113 assessed as piperacillin MIC at 100 uM incubated for 20 hrs by resazurin microtitre assay (reference value: 4 ug/ml); type: functional
Escherichia coli [10] = assay: Potentiation of erythromycin induced antibacterial activity in Escherichia coli BW25113 assessed as fold change in erythromycin MIC at 100 uM incubated for 20 hrs by resazurin microtitre assay; type: functional
Escherichia coli [11] = assay: Potentiation of oxacillin induced antibacterial activity in Escherichia coli BW25113 assessed as fold change in oxacillin MIC at 100 uM incubated for 20 hrs by resazurin microtitre assay; type: functional
Escherichia coli [12] = assay: Inhibition of AcrB Ser450Pro mutant in Escherichia coli BW25113 assessed as potentiation of pyridomycin-induced antibacterial activity incubated for 20 hrs by resazurin microtitre assay
Escherichia coli [13] = assay: Selectivity ratio of EC90 for inhibition of AcrB Asp951Asn mutant in Escherichia coli BW25113 to inhibition of AcrB in Escherichia coli BW25113 incubated for 20 hrs by resazurin microtitre assay
Escherichia coli [14] = assay: Inhibition of AcrB Asp951Asn mutant in Escherichia coli BW25113 assessed as potentiation of pyridomycin-induced antibacterial activity incubated for 20 hrs by resazurin microtitre assay
Escherichia coli [15] = assay: Potentiation of chloramphenicol induced antibacterial activity in Escherichia coli BW25113 assessed as fold change in chloramphenicol MIC at 100 uM incubated for 20 hrs by resazurin microtitre assay; type: functional
Escherichia coli [16] = assay: Potentiation of novobiocin induced antibacterial activity in Escherichia coli BW25113 assessed as fold change in novobiocin MIC at 100 uM incubated for 20 hrs by resazurin microtitre assay; type: functional
Escherichia coli [17] = assay: Potentiation of fusidic acid induced antibacterial activity in Escherichia coli BW25113 assessed as fold change in fusidic acid MIC at 100 uM incubated for 20 hrs by resazurin microtitre assay; type: functional
Escherichia coli [18] = assay: Potentiation of chloramphenicol induced antibacterial activity in Escherichia coli BW25113 assessed as chloramphenicol MIC at 100 uM incubated for 20 hrs by resazurin microtitre assay (reference value: 8 ug/ml); type: functional
Escherichia coli [19] = assay: Potentiation of linezolid induced antibacterial activity in Escherichia coli BW25113 assessed as fold change in linezolid MIC at 100 uM incubated for 20 hrs by resazurin microtitre assay; type: functional
Escherichia coli [20] = assay: Potentiation of novobiocin induced antibacterial activity in Escherichia coli BW25113 assessed as novobiocin MIC at 100 uM incubated for 20 hrs by resazurin microtitre assay (reference value: 80 ug/ml); type: functional
Escherichia coli [21] = assay: Potentiation of ciprofloxacin induced antibacterial activity in Escherichia coli BW25113 assessed as ciprofloxacin MIC at 100 uM incubated for 20 hrs by resazurin microtitre assay (reference value: 0.01 ug/ml); type: functional
[22] = molecular target: T1, Multidrug efflux pump subunit AcrB (Escherichia coli (strain K12)); assay: Inhibition of AcrB in Escherichia coli BW25113 assessed as potentiation of pyridomycin-induced antibacterial activity incubated for 20 hrs by resazurin microtitre assay
Escherichia coli [23] = assay: Potentiation of oxacillin induced antibacterial activity in Escherichia coli BW25113 assessed as oxacillin MIC at 100 uM incubated for 20 hrs by resazurin microtitre assay (Rvb > 128 ug/ml); type: functional
Escherichia coli [24] = assay: Potentiation of fusidic acid induced antibacterial activity in Escherichia coli BW25113 assessed as fusidic acid MIC at 100 uM incubated for 20 hrs by resazurin microtitre assay (Rvb > 128 ug/ml); type: functional
[25] = molecular target: T1, Multidrug efflux pump subunit AcrB (Escherichia coli (strain K12)); assay: Potency index, ratio of BDM88832 EC90 to test compound EC90 for inhibition of AcrAB-TolC in Escherichia coli BW25113
Escherichia coli [26] = assay: Potentiation of erythromycin induced antibacterial activity in Escherichia coli BW25113 assessed as erythromycin MIC at 100 uM incubated for 20 hrs by resazurin microtitre assay (reference value: 128 ug/ml); type: functional
Escherichia coli [27] = assay: Inhibition of AcrB Ala446Pro mutant in Escherichia coli BW25113 assessed as potentiation of pyridomycin-induced antibacterial activity incubated for 20 hrs by resazurin microtitre assay
Escherichia coli [28] = assay: Selectivity ratio of EC90 for inhibition of AcrB Glu947Gln mutant in Escherichia coli BW25113 to inhibition of AcrB in Escherichia coli BW25113 incubated for 20 hrs by resazurin microtitre assay
Escherichia coli [29] = assay: Potentiation of linezolid induced antibacterial activity in Escherichia coli BW25113 assessed as linezolid MIC at 100 uM incubated for 20 hrs by resazurin microtitre assay (Rvb > 128 ug/ml); type: functional
Escherichia coli [30] = assay: Potentiation of ciprofloxacin induced antibacterial activity in Escherichia coli BW25113 assessed as fold change in ciprofloxacin MIC at 100 uM incubated for 20 hrs by resazurin microtitre assay; type: functional
Escherichia coli [31] = assay: Inhibition of AcrB Glu947Gln mutant in Escherichia coli BW25113 assessed as potentiation of pyridomycin-induced antibacterial activity incubated for 20 hrs by resazurin microtitre assay
Escherichia coli [32] = assay: Potentiation of piperacillin induced antibacterial activity in Escherichia coli BW25113 assessed as fold change in piperacillin MIC at 100 uM incubated for 20 hrs by resazurin microtitre assay; type: functional
[33] = Solubility of compound in DMSO at > 125 uM; type: physicochemical

SMILES	MIC (Escherichia coli [1])	microsomal CLint at 1 µM [3]	EC90 [4]	half-life at 10 µM [5]	solubility at 24 h [6]	half-life at 1 µM [7]	MIC95 (Escherichia coli [9])	fold change (FC) (Escherichia coli [10])	fold change (FC) (Escherichia coli [11])	EC90 (Escherichia coli [12])	Ratio (Escherichia coli [13])	EC90 (Escherichia coli [14])	fold change (FC) (Escherichia coli [15])	fold change (FC) (Escherichia coli [16])	fold change (FC) (Escherichia coli [17])	MIC95 (Escherichia coli [18])	fold change (FC) (Escherichia coli [19])	MIC95 (Escherichia coli [20])	MIC95 (Escherichia coli [21])	EC90 [22]	further results
CC/C(C)=C1\OC(=O)[C@H](C)[C@H](O)[C@H](Cc2cccnc2)NC(=O)[C@@H](NC(=O)c2ncccc2O)[C@@H](C)OC1=O [PYRIDOMYCIN]	12.5 µg/mL	–	–	–	–	–	–	–	–	–	–	–	–	–	–	–	–	–	–	–	MIC (Escherichia coli [2]): 0.78 µg/mL (≈ 1.44 µM)
Clc1cc(I)cnc1N1CCNCC1	> 250 µM	241 µL/min/mg	12 µM	> 360 min	> 200 µM	9 min	–	–	–	–	–	–	–	–	–	–	–	–	–	–	–
FC(F)(F)c1cnc(N2CCNCC2)c(Cl)c1	> 250 µM	–	62 µM	–	–	–	–	–	–	–	–	–	–	–	–	–	–	–	–	–	MIC90 (Escherichia coli [8]): > 500 µM
Cl.Cl.NCc1cccc(OC(=O)c2cnc(N3CCNCC3)c(Cl)c2)c1	> 250 µM	–	–	–	180 µM	–	< 0.5 µg/mL	32	>26	> 62 µM	103	62 µM	4	64	>26	2 µg/mL	>16	1.2 µg/mL	< 5 ng/mL	0.6 µM	MIC95 (Escherichia coli [23]): 5 µg/mL; MIC95 (Escherichia coli [24]): 5 µg/mL; Ratio [25]: 20; MIC95 (Escherichia coli [26]): 4 µg/mL; EC90 (Escherichia coli [27]): > 62 µM; Ratio (Escherichia coli [28]): > 103; MIC95 (Escherichia coli [29]): 8 µg/mL; fold change (FC) (Escherichia coli [30]): >2; EC90 (Escherichia coli [31]): > 62 µM; fold change (FC) (Escherichia coli [32]): >8
Cl.Cl.NCCc1nc(-c2cnc(N3CCNCC3)c(Cl)c2)no1	> 250 µM	< 2 µL/min/mg	–	> 360 min	> 200 µM	> 40 min	< 0.5 µg/mL	8	3	> 250 µM	> 31	> 250 µM	4	8	4	2 µg/mL	8	10 µg/mL	< 5 ng/mL	8 µM	MIC95 (Escherichia coli [23]): 40 µg/mL; MIC95 (Escherichia coli [24]): 32 µg/mL; MIC95 (Escherichia coli [26]): 16 µg/mL; EC90 (Escherichia coli [27]): > 250 µM; Ratio (Escherichia coli [28]): > 31; MIC95 (Escherichia coli [29]): 16 µg/mL; fold change (FC) (Escherichia coli [30]): >2; EC90 (Escherichia coli [31]): > 250 µM; fold change (FC) (Escherichia coli [32]): >8
Cc1noc(-c2cnc(N3CCNCC3)c(Cl)c2)n1.Cl	> 125 µM	–	–	–	–	–	–	–	–	–	–	–	–	–	–	–	–	–	–	> 125 µM	solubility [33]: Soluble
